Laboratory results published in patent publication US20030144360A1, “Composition and method for modulating BAR/FXR receptor activity” (Allergan Sales, Inc., priority 2001, published 2003).
Where “and” joins values, the source holds several entries; their conditions need not be identical. Equal values may be shown once.

What was measured:
MFXR / HRXRop = biological target: T1, MFXR / HRXRop (UniProt P19793+Q60641); test: Co-transfection luciferase assay, EcRE × 6 reporter, MFXR + HRXRop;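 further: CV-1 African green monkey cells, liposome transfection with a β-galactosidase vector serving as internal control, luciferase chemiluminescence read after roughly 40 h compound exposure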
T1 sequence (Q60641 1-488): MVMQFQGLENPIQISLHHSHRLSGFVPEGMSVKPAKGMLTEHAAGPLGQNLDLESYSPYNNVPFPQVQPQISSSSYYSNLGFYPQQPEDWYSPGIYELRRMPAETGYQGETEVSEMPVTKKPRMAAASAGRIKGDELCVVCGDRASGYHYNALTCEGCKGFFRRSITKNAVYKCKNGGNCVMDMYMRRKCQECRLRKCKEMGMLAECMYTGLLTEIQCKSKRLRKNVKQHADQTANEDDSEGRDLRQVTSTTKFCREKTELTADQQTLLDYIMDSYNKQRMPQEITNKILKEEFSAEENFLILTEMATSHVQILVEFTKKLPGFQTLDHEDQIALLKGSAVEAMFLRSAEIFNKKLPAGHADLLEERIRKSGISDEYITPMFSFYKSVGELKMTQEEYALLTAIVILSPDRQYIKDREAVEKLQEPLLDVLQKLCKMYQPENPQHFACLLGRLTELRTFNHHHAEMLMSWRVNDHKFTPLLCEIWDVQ
T1 sequence (P19793 1-462): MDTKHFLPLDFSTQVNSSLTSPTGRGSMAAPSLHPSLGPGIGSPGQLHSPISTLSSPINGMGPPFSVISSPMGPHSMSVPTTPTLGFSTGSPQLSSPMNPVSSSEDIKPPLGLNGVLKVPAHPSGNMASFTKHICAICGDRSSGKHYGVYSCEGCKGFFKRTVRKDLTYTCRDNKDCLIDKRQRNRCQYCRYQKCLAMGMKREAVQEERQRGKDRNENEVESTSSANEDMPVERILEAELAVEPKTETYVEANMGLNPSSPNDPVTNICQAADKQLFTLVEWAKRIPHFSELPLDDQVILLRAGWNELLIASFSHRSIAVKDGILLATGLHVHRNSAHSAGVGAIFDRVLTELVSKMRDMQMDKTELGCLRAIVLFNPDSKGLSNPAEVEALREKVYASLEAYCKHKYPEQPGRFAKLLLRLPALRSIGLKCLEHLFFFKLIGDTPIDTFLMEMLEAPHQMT

RFXRop / HRXRop = biological target: T2, RFXRop / HRXRop (UniProt P19793+Q62735); test: Co-transfection luciferase assay, EcRE × 6 reporter, RFXRop + HRXRop;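 further: CV-1 monkey cells transiently transfected with receptor expression vectors, reporter construct and β-galactosidase internal control, exposed to compound about 40 h, then luciferase chemiluminescence read by luminometer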
T2 sequence (Q62735 1-469): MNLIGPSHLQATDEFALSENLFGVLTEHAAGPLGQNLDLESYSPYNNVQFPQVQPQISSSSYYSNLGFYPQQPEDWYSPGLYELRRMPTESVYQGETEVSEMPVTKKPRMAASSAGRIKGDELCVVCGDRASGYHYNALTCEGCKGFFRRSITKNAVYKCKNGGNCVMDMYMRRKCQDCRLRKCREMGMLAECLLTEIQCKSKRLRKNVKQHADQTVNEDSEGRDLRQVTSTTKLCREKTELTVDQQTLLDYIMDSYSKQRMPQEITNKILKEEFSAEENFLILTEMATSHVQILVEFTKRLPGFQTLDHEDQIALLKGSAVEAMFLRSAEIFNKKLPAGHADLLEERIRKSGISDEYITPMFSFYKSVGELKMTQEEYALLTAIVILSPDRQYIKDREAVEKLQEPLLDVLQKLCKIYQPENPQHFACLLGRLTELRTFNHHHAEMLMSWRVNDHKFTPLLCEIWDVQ
T2 sequence (P19793 1-462): T1 sequence (P19793 1-462)

- Fold Activation (MFXR / HRXRop; 0.1 μM LG268 + 0.01 μM AGN 34): 27.08 fold
- Reporter Activity (MFXR / HRXRop; 0.1 μM LG268 + 0.01 μM AGN 34): 6.73
- Fold Activation (MFXR / HRXRop; 0.1 μM LG268 + 0.1 μM AGN 34): 1.56 fold
- Reporter Activity (MFXR / HRXRop; 0.1 μM LG268 + 0.1 μM AGN 34): 0.39
- Fold Activation (MFXR / HRXRop; 0.1 μM LG268 + 1 μM AGN 34): 1.07 fold
- Reporter Activity (MFXR / HRXRop; 0.1 μM LG268 + 1 μM AGN 34): 0.27
- Fold Activation (MFXR / HRXRop; 0.1 μM LG268 + 3 μM AGN 34): 1.04 fold
- Reporter Activity (MFXR / HRXRop; 0.1 μM LG268 + 3 μM AGN 34): 0.26
- Fold Activation (MFXR / HRXRop; 0.1 μM LG268 + 10 μM AGN 34): 1.18 fold
- Reporter Activity (MFXR / HRXRop; 0.1 μM LG268 + 10 μM AGN 34): 0.29
- Fold Activation (MFXR / HRXRop; 10 μM AGN 34 alone): 1.18 fold and 1.39 fold
- Reporter Activity (MFXR / HRXRop; 10 μM AGN 34 alone): 0.26 and 0.35
- Fold Activation (MFXR / HRXRop; 50 μM CDCA + 0.01 μM AGN 34): 19.61 fold
- Reporter Activity (MFXR / HRXRop; 50 μM CDCA + 0.01 μM AGN 34): 4.37
- Fold Activation (MFXR / HRXRop; 50 μM CDCA + 0.1 μM AGN 34): 10.99 fold
- Reporter Activity (MFXR / HRXRop; 50 μM CDCA + 0.1 μM AGN 34): 2.45
- Fold Activation (MFXR / HRXRop; 50 μM CDCA + 1 μM AGN 34): 6.19 fold and 5.26 fold
- Reporter Activity (MFXR / HRXRop; 50 μM CDCA + 1 μM AGN 34): 1.38
- Fold Activation (MFXR / HRXRop; 50 μM CDCA + 3 μM AGN 34): 5.77 fold
- Reporter Activity (MFXR / HRXRop; 50 μM CDCA + 3 μM AGN 34): 1.29
- Fold Activation (MFXR / HRXRop; 50 μM CDCA + 10 μM AGN 34): 6.11 fold
- Reporter Activity (MFXR / HRXRop; 50 μM CDCA + 10 μM AGN 34): 1.36
- Fold Activation (RFXRop / HRXRop; 0.1 μM LG268 + 0.01 μM AGN 34): 18.59 fold
- Reporter Activity (RFXRop / HRXRop; 0.1 μM LG268 + 0.01 μM AGN 34): 5.24
- Fold Activation (RFXRop / HRXRop; 0.1 μM LG268 + 0.1 μM AGN 34): 1.55 fold
- Reporter Activity (RFXRop / HRXRop; 0.1 μM LG268 + 0.1 μM AGN 34): 0.44
- Fold Activation (RFXRop / HRXRop; 0.1 μM LG268 + 1 μM AGN 34): 0.88 fold
- Reporter Activity (RFXRop / HRXRop; 0.1 μM LG268 + 1 μM AGN 34): 0.25
- Fold Activation (RFXRop / HRXRop; 0.1 μM LG268 + 3 μM AGN 34): 0.92 fold
- Reporter Activity (RFXRop / HRXRop; 0.1 μM LG268 + 3 μM AGN 34): 0.26
- Fold Activation (RFXRop / HRXRop; 0.1 μM LG268 + 10 μM AGN 34): 0.90 fold
- Reporter Activity (RFXRop / HRXRop; 0.1 μM LG268 + 10 μM AGN 34): 0.25
- Fold Activation (RFXRop / HRXRop; 10 μM AGN 34 alone): 0.84 fold and 1.02 fold
- Reporter Activity (RFXRop / HRXRop; 10 μM AGN 34 alone): 0.27 and 0.29
- Fold Activation (RFXRop / HRXRop; 50 μM CDCA + 0.01 μM AGN 34): 9.03 fold
- Reporter Activity (RFXRop / HRXRop; 50 μM CDCA + 0.01 μM AGN 34): 2.92
- Fold Activation (RFXRop / HRXRop; 50 μM CDCA + 0.1 μM AGN 34): 6.32 fold
- Reporter Activity (RFXRop / HRXRop; 50 μM CDCA + 0.1 μM AGN 34): 2.05
- Fold Activation (RFXRop / HRXRop; 50 μM CDCA + 1 μM AGN 34): 3.94 fold and 4.99 fold
- Reporter Activity (RFXRop / HRXRop; 50 μM CDCA + 1 μM AGN 34): 1.28
- Fold Activation (RFXRop / HRXRop; 50 μM CDCA + 3 μM AGN 34): 3.04 fold
- Reporter Activity (RFXRop / HRXRop; 50 μM CDCA + 3 μM AGN 34): 0.98
- Fold Activation (RFXRop / HRXRop; 50 μM CDCA + 10 μM AGN 34): 3.94 fold
- Reporter Activity (RFXRop / HRXRop; 50 μM CDCA + 10 μM AGN 34): 1.28
SMILES: CCCCCCOc1c(\C(C)=C/C=C/C(C)=C/C(=O)O)cc(C(C)C)cc1C(C)C [AGN 34, (2E, 4E, 6Z)-7-(2-Hexyloxy-3,5-diisopropylphenyl)-3-methylocta-2,4,6-trienoic Acid]
